Target: coffee bean alpha-galactosidase (Coffea arabica) (UniProt Q42656)
Assay: Inhibitory activity measured against alpha-galactosidase of coffee bean by colorimetric assay using the p-nitrophenyl glycoside method

Chain of coffee bean alpha-galactosidase (Coffea arabica) (Q42656 whole entry, looked up): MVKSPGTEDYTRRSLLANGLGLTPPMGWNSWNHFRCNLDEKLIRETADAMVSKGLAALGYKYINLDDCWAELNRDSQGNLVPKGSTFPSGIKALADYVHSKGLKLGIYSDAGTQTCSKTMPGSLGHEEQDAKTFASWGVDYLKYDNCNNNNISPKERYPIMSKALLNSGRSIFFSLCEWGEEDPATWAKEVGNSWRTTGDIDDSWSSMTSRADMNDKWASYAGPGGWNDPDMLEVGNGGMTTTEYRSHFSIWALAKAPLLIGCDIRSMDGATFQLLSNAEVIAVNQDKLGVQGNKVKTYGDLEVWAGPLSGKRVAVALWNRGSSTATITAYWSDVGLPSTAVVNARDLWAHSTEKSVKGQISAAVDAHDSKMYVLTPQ

IC50 [µM]	SMILES
80	OC[C@H]1N[C@H](CO)[C@H](O)C(O)[C@H]1O (some centres not stated)
6.4	OCC1NC(CO)[C@@H](O)C(O)C1O (stereo partly drawn) [(R)-2,6-Bis-hydroxymethyl-piperidine-3,4,5-triol]
